These results are taken from patent US20250243171A1, “QUINAZOLINE COMPOUNDS FOR TREATMENT OF DISEASE” (Arthrosi Therapeutics, Inc., priority 2021, published 2025).

Structures can show the parent of a compound that is named as a salt.

Holding throughout (experiment): EC50 assay: Ba/F3 stable cell proliferation (CCK-8, 72 h)
What all share (format): cell-based

The target in assay [1] is T1, Ba/F3 stable cells (Homo sapiens, UniProt P00533, DUP767-769, cells depend on it).
T1 construct: EC50 Ba/F3-EGFR V769-D770insASV; other: Ba/F3-EGFR V769-D770insASV cells, 72 h, CCK-8
Particulars: Ba/F3-EGFR V769-D770insASV cells. The gist of the method:
(§1)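 Ba/F3 stable cells were seeded at 4,000 cells/90 μL/well in 96-well plates and held 2 h at 37° C. in 5% CO2, then given 10 μL of serially titrated compound (0.1% DMSO final). After 72 h at 37° C., CCK-8 reagent was added for 4 hours and absorbance read at 450 nm to derive EC50.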

The target in assay [2] is T2, Ba/F3 stable cells (Homo sapiens, UniProt P00533, DUP768-770, cells depend on it).
T2 construct: EC50 Ba/F3-EGFR D770-N771insSVD; other: Ba/F3-EGFR D770-N771insSVD cells, 72 h, CCK-8
Particulars: Ba/F3-EGFR D770-N771insSVD cells. The essentials: as §1

Assay [3] has as its target T3, Ba/F3 stable cells (Homo sapiens, UniProt P00533, DUP771-773, cells depend on it).
T3 construct: EC50 Ba/F3-EGFR H773-V774insNPH; other: Ba/F3-EGFR H773-V774insNPH cells, 72 h, CCK-8
The following applies: Ba/F3-EGFR H773-V774insNPH cells. The essentials:
as §1

For assay [4], the target named is T4, Ba/F3 stable cells (Homo sapiens, UniProt P00533, INS763FQEA, cells depend on it).
T4 construct: EC50 Ba/F3-EGFR A763-Y764insFQEA; other: Ba/F3-EGFR A763-Y764insFQEA cells, 72 h, CCK-8
Particulars: Ba/F3-EGFR A763-Y764insFQEA cells. The essentials:
as §1

Assay [5] has as its target T5, Ba/F3 stable cells (Homo sapiens, UniProt P00533, T790M/L858R, cells depend on it).
T5 construct: EC50 Ba/F3-EGFR L858R-T790M; other: Ba/F3-EGFR L858R-T790M cells, 72 h, CCK-8
The following applies: Ba/F3-EGFR L858R-T790M cells. The gist of the method:
as §1

The target in assay [6] is T6, Ba/F3 stable cells (Homo sapiens, UniProt P04626, DUP772-775, cells depend on it).
T6 construct: EC50 Ba/F3-HER2 A775-G776insYVMA; other: Ba/F3-HER2 A775-G776insYVMA cells, 72 h, CCK-8
Particulars: Ba/F3-HER2 A775-G776insYVMA cells. The essentials:
as §1

T5 sequence (P00533 whole entry T790M/L858R): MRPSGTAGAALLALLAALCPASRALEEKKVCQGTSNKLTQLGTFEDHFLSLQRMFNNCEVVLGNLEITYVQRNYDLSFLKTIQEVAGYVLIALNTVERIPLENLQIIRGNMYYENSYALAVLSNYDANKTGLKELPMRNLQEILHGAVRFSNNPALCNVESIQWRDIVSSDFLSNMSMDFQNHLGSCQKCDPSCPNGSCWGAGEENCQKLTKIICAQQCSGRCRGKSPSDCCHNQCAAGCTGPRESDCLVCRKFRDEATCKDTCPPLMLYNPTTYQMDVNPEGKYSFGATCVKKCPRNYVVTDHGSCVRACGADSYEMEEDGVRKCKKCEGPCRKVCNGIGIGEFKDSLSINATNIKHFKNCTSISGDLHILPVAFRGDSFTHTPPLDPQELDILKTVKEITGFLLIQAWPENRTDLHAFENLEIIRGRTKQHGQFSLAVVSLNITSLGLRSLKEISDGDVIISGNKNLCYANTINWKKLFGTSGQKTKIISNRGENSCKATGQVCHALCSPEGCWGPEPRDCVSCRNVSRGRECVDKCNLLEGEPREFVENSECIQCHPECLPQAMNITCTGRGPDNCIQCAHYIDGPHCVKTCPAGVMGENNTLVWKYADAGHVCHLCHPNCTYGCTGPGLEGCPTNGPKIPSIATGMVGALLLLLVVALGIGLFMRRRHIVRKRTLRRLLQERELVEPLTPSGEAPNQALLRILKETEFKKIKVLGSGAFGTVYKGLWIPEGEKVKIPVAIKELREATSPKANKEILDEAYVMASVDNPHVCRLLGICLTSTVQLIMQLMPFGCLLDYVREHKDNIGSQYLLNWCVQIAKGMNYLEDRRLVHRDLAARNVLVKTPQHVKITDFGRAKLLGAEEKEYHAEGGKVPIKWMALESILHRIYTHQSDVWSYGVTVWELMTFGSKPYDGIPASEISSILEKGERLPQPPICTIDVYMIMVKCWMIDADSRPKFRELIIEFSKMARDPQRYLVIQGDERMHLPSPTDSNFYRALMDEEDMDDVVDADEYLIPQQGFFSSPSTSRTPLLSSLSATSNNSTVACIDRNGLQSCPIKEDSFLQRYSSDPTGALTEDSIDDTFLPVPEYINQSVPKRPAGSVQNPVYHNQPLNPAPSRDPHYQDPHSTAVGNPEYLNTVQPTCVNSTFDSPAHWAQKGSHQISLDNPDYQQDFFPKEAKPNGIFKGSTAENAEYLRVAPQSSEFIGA
T1 sequence (P00533 with tags, fused parts or gaps DUP767-769): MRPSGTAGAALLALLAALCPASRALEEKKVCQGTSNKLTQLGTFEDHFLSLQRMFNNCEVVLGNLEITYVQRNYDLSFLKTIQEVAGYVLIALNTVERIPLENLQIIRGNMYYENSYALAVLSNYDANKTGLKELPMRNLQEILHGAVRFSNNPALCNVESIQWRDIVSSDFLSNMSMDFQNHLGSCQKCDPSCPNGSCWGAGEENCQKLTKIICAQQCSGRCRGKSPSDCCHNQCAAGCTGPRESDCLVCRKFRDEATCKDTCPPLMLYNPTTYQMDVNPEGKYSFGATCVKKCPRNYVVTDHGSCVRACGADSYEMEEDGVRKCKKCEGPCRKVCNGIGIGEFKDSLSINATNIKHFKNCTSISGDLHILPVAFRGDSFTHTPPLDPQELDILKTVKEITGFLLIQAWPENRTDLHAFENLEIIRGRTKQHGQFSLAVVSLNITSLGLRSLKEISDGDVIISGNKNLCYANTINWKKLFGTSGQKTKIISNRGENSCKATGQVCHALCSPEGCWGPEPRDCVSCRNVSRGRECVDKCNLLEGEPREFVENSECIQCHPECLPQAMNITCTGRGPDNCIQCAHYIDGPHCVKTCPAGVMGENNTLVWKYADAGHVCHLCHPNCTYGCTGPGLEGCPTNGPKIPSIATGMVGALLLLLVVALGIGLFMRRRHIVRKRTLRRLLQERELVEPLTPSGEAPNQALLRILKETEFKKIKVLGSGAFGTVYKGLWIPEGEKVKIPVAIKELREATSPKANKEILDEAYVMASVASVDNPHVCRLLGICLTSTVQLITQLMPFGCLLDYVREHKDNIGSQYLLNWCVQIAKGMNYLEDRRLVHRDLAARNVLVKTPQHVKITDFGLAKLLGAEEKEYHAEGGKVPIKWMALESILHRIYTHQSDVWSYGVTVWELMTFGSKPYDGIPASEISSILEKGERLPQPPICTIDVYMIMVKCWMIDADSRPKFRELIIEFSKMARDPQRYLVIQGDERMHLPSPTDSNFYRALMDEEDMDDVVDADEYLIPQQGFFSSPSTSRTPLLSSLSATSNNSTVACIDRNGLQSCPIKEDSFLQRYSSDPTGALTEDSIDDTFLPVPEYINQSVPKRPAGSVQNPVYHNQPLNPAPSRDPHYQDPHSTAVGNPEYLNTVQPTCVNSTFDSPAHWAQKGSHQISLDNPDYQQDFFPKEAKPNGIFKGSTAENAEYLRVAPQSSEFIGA
T2 sequence (P00533 with tags, fused parts or gaps DUP768-770): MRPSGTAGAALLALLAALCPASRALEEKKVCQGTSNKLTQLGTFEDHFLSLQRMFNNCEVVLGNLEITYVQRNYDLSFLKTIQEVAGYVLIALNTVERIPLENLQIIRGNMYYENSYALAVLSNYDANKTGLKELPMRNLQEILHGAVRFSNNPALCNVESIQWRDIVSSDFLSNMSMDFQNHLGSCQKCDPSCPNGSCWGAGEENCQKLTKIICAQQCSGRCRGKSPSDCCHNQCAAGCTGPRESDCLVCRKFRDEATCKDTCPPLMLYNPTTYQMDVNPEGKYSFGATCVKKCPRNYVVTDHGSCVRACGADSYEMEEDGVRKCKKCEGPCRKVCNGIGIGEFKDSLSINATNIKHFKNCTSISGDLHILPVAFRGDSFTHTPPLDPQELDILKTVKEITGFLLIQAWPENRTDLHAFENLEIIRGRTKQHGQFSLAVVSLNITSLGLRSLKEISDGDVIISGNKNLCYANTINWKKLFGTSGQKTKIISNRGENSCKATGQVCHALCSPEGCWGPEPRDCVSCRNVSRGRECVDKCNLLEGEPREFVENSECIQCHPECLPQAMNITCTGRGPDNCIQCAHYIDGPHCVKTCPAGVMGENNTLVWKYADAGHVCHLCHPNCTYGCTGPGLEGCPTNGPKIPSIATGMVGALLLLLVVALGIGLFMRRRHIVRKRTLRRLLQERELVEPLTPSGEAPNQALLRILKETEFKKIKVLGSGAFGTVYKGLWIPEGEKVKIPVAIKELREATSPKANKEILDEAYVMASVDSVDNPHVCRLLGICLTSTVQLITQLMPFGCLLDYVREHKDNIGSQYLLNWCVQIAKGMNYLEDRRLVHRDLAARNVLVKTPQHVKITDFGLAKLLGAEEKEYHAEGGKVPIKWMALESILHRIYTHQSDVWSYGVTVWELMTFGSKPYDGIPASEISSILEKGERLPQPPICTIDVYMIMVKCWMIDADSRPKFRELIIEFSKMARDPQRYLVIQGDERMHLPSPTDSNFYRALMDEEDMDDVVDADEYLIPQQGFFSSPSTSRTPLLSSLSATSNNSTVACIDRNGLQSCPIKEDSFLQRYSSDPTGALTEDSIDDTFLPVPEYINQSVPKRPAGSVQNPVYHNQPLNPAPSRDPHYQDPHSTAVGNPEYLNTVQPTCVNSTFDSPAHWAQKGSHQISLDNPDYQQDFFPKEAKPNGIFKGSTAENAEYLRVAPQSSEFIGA
T3 sequence (P00533 with tags, fused parts or gaps DUP771-773): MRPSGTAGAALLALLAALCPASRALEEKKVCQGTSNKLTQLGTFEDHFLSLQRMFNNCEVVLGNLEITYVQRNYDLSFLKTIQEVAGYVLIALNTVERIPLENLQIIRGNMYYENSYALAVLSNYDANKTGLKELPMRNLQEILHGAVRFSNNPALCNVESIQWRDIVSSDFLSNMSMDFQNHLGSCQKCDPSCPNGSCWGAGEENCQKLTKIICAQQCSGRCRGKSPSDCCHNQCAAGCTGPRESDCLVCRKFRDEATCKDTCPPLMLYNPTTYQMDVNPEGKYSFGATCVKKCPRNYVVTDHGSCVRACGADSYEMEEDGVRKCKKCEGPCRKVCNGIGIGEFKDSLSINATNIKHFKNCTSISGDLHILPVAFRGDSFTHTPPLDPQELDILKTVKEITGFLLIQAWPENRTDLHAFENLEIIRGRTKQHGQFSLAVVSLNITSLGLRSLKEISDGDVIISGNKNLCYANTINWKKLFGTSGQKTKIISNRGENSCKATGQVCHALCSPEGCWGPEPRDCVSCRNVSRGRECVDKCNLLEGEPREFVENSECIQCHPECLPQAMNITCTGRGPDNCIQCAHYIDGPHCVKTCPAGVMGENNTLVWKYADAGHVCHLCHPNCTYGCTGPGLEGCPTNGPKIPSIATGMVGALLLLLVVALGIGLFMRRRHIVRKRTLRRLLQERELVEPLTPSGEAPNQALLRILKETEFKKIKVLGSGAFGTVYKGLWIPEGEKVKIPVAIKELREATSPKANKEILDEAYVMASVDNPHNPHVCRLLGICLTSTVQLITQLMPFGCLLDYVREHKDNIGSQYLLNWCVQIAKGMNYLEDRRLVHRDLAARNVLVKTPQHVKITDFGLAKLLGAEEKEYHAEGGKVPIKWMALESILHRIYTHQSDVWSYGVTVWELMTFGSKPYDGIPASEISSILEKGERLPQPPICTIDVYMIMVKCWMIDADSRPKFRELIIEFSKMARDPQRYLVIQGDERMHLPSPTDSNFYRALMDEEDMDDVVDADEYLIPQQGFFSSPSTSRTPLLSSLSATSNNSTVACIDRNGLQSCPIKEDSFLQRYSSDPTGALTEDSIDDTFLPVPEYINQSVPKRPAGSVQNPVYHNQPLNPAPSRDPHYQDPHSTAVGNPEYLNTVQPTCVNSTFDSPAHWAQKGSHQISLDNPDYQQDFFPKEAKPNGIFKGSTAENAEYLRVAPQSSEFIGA

In general, EC50 refers to the concentration needed to bring the measured effect to its halfway point. Higher therefore signals weaker potency. `C=CS(=O)(=O)N1CCC(Oc2cc3c(Nc4ccc(Cl)c(Cl)c4F)ncnc3cc2OC)CC1` [Compound 192, N-(3,4-dichloro-2-fluorophenyl)-7-methoxy-6-((1-(vinylsulfonyl)piperidin-4-yl)oxy)quinazolin-4-amine]: the EC50 at Ba/F3 stable cells [1] was no more than 200 nM; on Ba/F3 stable cells [2] it was greater than 1000 nM; on Ba/F3 stable cells [3], no more than 200 nM; on Ba/F3 stable cells [4], no more than 200 nM; at Ba/F3 stable cells [5], no more than 200 nM; at Ba/F3 stable cells [6], 200 to 1000 nM.

Consider `C=CS(=O)(=O)N1CCC(Oc2cc3c(C(=O)c4ccc(Cl)c(Cl)c4F)ncnc3cc2OC)CC1` [Compound 193, (3,4-dichloro-2-fluorophenyl)(7-methoxy-6-((1-(vinylsulfonyl)piperidin-4-yl)oxy)quinazolin-4-yl)methanone], for which the 50% effective concentration (EC50) is 200 to 1000 nM on Ba/F3 stable cells [1]; greater than 1000 nM at Ba/F3 stable cells [2]; 200 to 1000 nM on Ba/F3 stable cells [3]; no more than 200 nM at Ba/F3 stable cells [4]; 200 to 1000 nM on Ba/F3 stable cells [5]; greater than 1000 nM at Ba/F3 stable cells [6].

For the compound `COc1cc2ncnc(Nc3ccc(Cl)c(Cl)c3F)c2cc1OC1CCN(C#N)CC1` [Compound 194, 4-((4-((3,4-dichloro-2-fluorophenyl)amino)-7-methoxyquinazolin-6-yl)oxy)piperidine-1-carbonitrile], the 50% effective concentration (EC50) on Ba/F3 stable cells [1] was no more than 200 nM; at Ba/F3 stable cells [2], greater than 1000 nM; at Ba/F3 stable cells [3], 200 to 1000 nM; on Ba/F3 stable cells [4], no more than 200 nM; at Ba/F3 stable cells [5], greater than 1000 nM; at Ba/F3 stable cells [6], greater than 1000 nM.

As to `COc1cc2ncnc(Nc3ccc(Cl)c(Cl)c3F)c2cc1C1CN(C#N)C1` [Compound 195, 3-(4-((3,4-dichloro-2-fluorophenyl)amino)-7-methoxy-quinazolin-6-yl)azetidine-1-carbonitrile], the EC50 at Ba/F3 stable cells [1] is greater than 1000 nM; at Ba/F3 stable cells [2], greater than 1000 nM; at Ba/F3 stable cells [3], greater than 1000 nM; on Ba/F3 stable cells [4], 200 to 1000 nM; on Ba/F3 stable cells [5], 200 to 1000 nM; on Ba/F3 stable cells [6], 200 to 1000 nM.

Regarding `COc1cc2ncnc(Nc3ccc(Cl)c(Cl)c3F)c2cc1OC1CC(N(C)C#N)C1` (stereo not drawn) [Compound 196, N-(3-((4-((3,4-dichloro-2-fluorophenyl)amino)-7-methoxy-quinazolin-6-yl)oxy)cyclobutyl)-N-methylcyanamide], the EC50 at Ba/F3 stable cells [1] was no more than 200 nM; on Ba/F3 stable cells [2], 200 to 1000 nM; at Ba/F3 stable cells [3], 200 to 1000 nM; on Ba/F3 stable cells [4], no more than 200 nM; on Ba/F3 stable cells [5], greater than 1000 nM; at Ba/F3 stable cells [6], 200 to 1000 nM.

For `COc1cc2ncnc(Nc3ccc(Cl)c(Cl)c3F)c2cc1C1=CCCN(C#N)C1` [Compound 197, 5-(4-((3,4-dichloro-2-fluorophenyl)amino)-7-methoxy-quinazolin-6-yl)-3,6-dihydropyridine-1(2H)-carbonitrile], the EC50 at Ba/F3 stable cells [1] is greater than 1000 nM; on Ba/F3 stable cells [2], greater than 1000 nM; at Ba/F3 stable cells [3], greater than 1000 nM; on Ba/F3 stable cells [4], 200 to 1000 nM; at Ba/F3 stable cells [5] it was greater than 1000 nM; on Ba/F3 stable cells [6] it was greater than 1000 nM.

Regarding `COc1cc2ncnc(Nc3ccc(Cl)c(Cl)c3F)c2cc1OC1CCCN(C#N)C1` (stereo not drawn) [Compound 198, 3-((4-((3,4-dichloro-2-fluorophenyl)amino)-7-methoxy-quinazolin-6-yl)oxy)piperidine-1-carbonitrile], the EC50 is 200 to 1000 nM on Ba/F3 stable cells [1]; greater than 1000 nM on Ba/F3 stable cells [2]; 200 to 1000 nM at Ba/F3 stable cells [3]; no more than 200 nM on Ba/F3 stable cells [4]; greater than 1000 nM on Ba/F3 stable cells [5]; greater than 1000 nM at Ba/F3 stable cells [6].

As for `C=CC(=O)N1CCC(Oc2c(OC)cc3ncnc4c3c2NC(=O)N4c2ccc(Cl)c(Cl)c2F)CC1` [Compound 199, 9-((1-acryloylpiperidin-4-yl)oxy)-3-(3,4-dichloro-2-fluorophenyl)-8-methoxy-1H-pyrimido[4,5,6-de]quinazolin-2(3H)-one], the EC50 on Ba/F3 stable cells [1] is 200 to 1000 nM; on Ba/F3 stable cells [2], 200 to 1000 nM; on Ba/F3 stable cells [3], 200 to 1000 nM; at Ba/F3 stable cells [4] it was no more than 200 nM; at Ba/F3 stable cells [5], 200 to 1000 nM; on Ba/F3 stable cells [6], 200 to 1000 nM.

Regarding `C=CC(=O)N1CCC(Oc2c(OC)cc3ncnc4c3c2N(C)C(=O)N4c2ccc(Cl)c(Cl)c2F)CC1` [Compound 200, 9-((1-acryloylpiperidin-4-yl)oxy)-3-(3,4-dichloro-2-fluorophenyl)-8-methoxy-1-methyl-1H-pyrimido[4,5,6-de]quinazolin-2(3H)-one], the EC50 on Ba/F3 stable cells [1] was 200 to 1000 nM; on Ba/F3 stable cells [2], greater than 1000 nM; at Ba/F3 stable cells [3], 200 to 1000 nM; at Ba/F3 stable cells [4] it was no more than 200 nM; at Ba/F3 stable cells [5], greater than 1000 nM; on Ba/F3 stable cells [6], greater than 1000 nM.

Consider `C=CC(=O)N1CCC(Oc2c(OC)cc3ncnc4c3c2NC(=O)N4c2ccc(Cl)c(Cl)c2F)C1` (stereo not drawn) [Compound 205, 9-((1-acryloylpyrrolidin-3-yl)oxy)-3-(3,4-dichloro-2-fluorophenyl)-8-methoxy-1H-pyrimido[4,5,6-de]quinazolin-2(3H)-one], for which the EC50 on Ba/F3 stable cells [1] was greater than 1000 nM; on Ba/F3 stable cells [2], greater than 1000 nM; on Ba/F3 stable cells [3], greater than 1000 nM; at Ba/F3 stable cells [4] it was 200 to 1000 nM; on Ba/F3 stable cells [5], greater than 1000 nM; on Ba/F3 stable cells [6] it was greater than 1000 nM.

Take `C=CC(=O)N1CC=C(c2c(OC)cc3ncnc4c3c2N(C)C(=O)N4c2ccc(Cl)c(Cl)c2F)CC1` [Compound 206, 9-(1-acryloyl-1,2,3,6-tetrahydropyridin-4-yl)-3-(3,4-dichloro-2-fluorophenyl)-8-methoxy-1-methyl-1H-pyrimido[4,5,6-de]quinazolin-2(3H)-one]: the EC50 was 200 to 1000 nM on Ba/F3 stable cells [1]; greater than 1000 nM on Ba/F3 stable cells [2]; greater than 1000 nM at Ba/F3 stable cells [3]; no more than 200 nM at Ba/F3 stable cells [4]; greater than 1000 nM at Ba/F3 stable cells [5]; 200 to 1000 nM on Ba/F3 stable cells [6].

As for `COc1cc2ncnc(Nc3ccc(Cl)c(Cl)c3F)c2c([N+](=O)[O-])c1OC1CCNCC1` [Compound 207, N-(3,4-dichloro-2-fluorophenyl)-7-methoxy-5-nitro-6-(piperidin-4-yloxy)quinazolin-4-amine hydrochloride], the EC50 on Ba/F3 stable cells [1] was 200 to 1000 nM; at Ba/F3 stable cells [2], greater than 1000 nM; at Ba/F3 stable cells [3] it was 200 to 1000 nM; on Ba/F3 stable cells [4] it was no more than 200 nM; on Ba/F3 stable cells [5] it was 200 to 1000 nM; at Ba/F3 stable cells [6] it was 200 to 1000 nM.

`C=CC(=O)N1CCC(Oc2c(OC)cc3ncnc(Nc4ccc(Cl)c(Cl)c4F)c3c2[N+](=O)[O-])CC1` [Compound 208, 1-(4-((4-((3,4-dichloro-2-fluorophenyl)amino)-7-methoxy-5-nitroquinazolin-6-yl)oxy)piperidin-1-yl)prop-2-en-1-one]: the EC50 is greater than 1000 nM at Ba/F3 stable cells [1]; greater than 1000 nM at Ba/F3 stable cells [2]; greater than 1000 nM at Ba/F3 stable cells [3]; 200 to 1000 nM at Ba/F3 stable cells [4]; greater than 1000 nM on Ba/F3 stable cells [5]; greater than 1000 nM on Ba/F3 stable cells [6].

Regarding `C=CC(=O)N1CCC(Oc2c(OC)cc3ncnc4c3c2NC(=O)N4c2ccc(Cl)c(Cl)c2)CC1` [Compound 215, 9-((1-acryloylpiperidin-4-yl)oxy)-3-(3,4-dichlorophenyl)-8-methoxy-1H-pyrimido[4,5,6-de]quinazolin-2(3H)-one], the EC50 on Ba/F3 stable cells [1] is greater than 1000 nM; at Ba/F3 stable cells [2], greater than 1000 nM; at Ba/F3 stable cells [3] it was greater than 1000 nM; on Ba/F3 stable cells [4], no more than 200 nM; at Ba/F3 stable cells [5] it was greater than 1000 nM; at Ba/F3 stable cells [6] it was greater than 1000 nM.

Consider `C=CC(=O)N1CC(Oc2c(OC)cc3ncnc4c3c2NC(=O)N4c2ccc(Cl)c(Cl)c2F)C1` [Compound 216, 9-((1-acryloylazetidin-3-yl)oxy)-3-(3,4-dichloro-2-fluorophenyl)-8-methoxy-1H-pyrimido[4,5,6-de]quinazolin-2(3H)-one], for which the concentration giving a half-maximal response (EC50) at Ba/F3 stable cells [1] is no more than 200 nM; at Ba/F3 stable cells [2] it was no more than 200 nM; on Ba/F3 stable cells [3], no more than 200 nM; at Ba/F3 stable cells [4], no more than 200 nM; at Ba/F3 stable cells [5], no more than 200 nM; on Ba/F3 stable cells [6], greater than 1000 nM.

For `C=CC(=O)N1CCC(Oc2c(OC)cc3ncnc4c3c2C=C(C)N4c2ccc(Cl)c(Cl)c2F)CC1` [Compound 217, 1-(4-((4-(3,4-dichloro-2-fluorophenyl)-8-methoxy-5-methyl-4H-pyrido[2,3,4-de]quinazolin-7-yl)oxy)piperidin-1yl)prop-2-en-1-one], the half-maximal effective concentration (EC50) is no more than 200 nM at Ba/F3 stable cells [1]; 200 to 1000 nM on Ba/F3 stable cells [2]; 200 to 1000 nM on Ba/F3 stable cells [3]; no more than 200 nM on Ba/F3 stable cells [4]; 200 to 1000 nM at Ba/F3 stable cells [5]; greater than 1000 nM at Ba/F3 stable cells [6].
